Read-outs that look alike come from different tables or passages of the source.
Experiments:
mTOR = mTOR (Homo sapiens, UniProt P42345); test: Z’-LYTE enzymatic assay; conditions: Z’-LYTE assay at [ATP]=apparent Km; read-out: Biochemical IC50 mTOR
MKK2 = MKK2 (Homo sapiens, UniProt P36507); test: ICKP radiometric kinase assay; type: biochemical; conditions: read-out: % AR (% kinase activity remaining)
JNK2 = JNK2 (Homo sapiens, UniProt P45984); test: ICKP radiometric kinase assay; type: biochemical; conditions: read-out: % AR (% kinase activity remaining)
JNK3 = JNK3 (Homo sapiens, UniProt P53779); test: ICKP radiometric kinase assay; type: biochemical; conditions: read-out: % AR (% kinase activity remaining)
p38 alpha = p38 alpha (Homo sapiens, UniProt Q16539); test: ICKP radiometric kinase assay; type: biochemical; conditions: read-out: % AR (% kinase activity remaining)
p38 beta = p38 beta (Homo sapiens, UniProt Q15759); test: ICKP radiometric kinase assay; type: biochemical; conditions: read-out: % AR (% kinase activity remaining)
PDK1 = PDK1 (Homo sapiens, UniProt O15530); test: ICKP radiometric kinase assay; type: biochemical; conditions: read-out: % AR (% kinase activity remaining)
PKB alpha = PKB alpha (Homo sapiens, UniProt P31749); test: ICKP radiometric kinase assay; type: biochemical; conditions: read-out: % AR (% kinase activity remaining)
MAPKAP-K2 = MAPKAP-K2 (Homo sapiens, UniProt P49137); test: ICKP radiometric kinase assay; type: biochemical; conditions: read-out: % AR (% kinase activity remaining)
CAMK1 = CAMK1 (Homo sapiens, UniProt Q14012); test: ICKP radiometric kinase assay; type: biochemical; conditions: read-out: % AR (% kinase activity remaining)
CDK2-Cyclin A = CDK2-Cyclin A (Homo sapiens, UniProt P24941); test: ICKP radiometric kinase assay; type: biochemical; conditions: read-out: % AR (% kinase activity remaining)
MARK4 = MARK4 (Homo sapiens, UniProt Q96L34); test: ICKP radiometric kinase assay; type: biochemical; conditions: read-out: % AR (% kinase activity remaining)
CK2 = CK2 (Homo sapiens, UniProt P68400); test: ICKP radiometric kinase assay; type: biochemical; conditions: read-out: % AR (% kinase activity remaining)
TTBK1 = TTBK1 (Homo sapiens, UniProt Q5TCY1); test: ICKP radiometric kinase assay; type: biochemical; conditions: read-out: % AR (% kinase activity remaining)
DYRK1A = DYRK1A (Homo sapiens, UniProt Q13627); test: ICKP radiometric kinase assay; type: biochemical; conditions: read-out: % AR (% kinase activity remaining)
DYRK3 = target: T1, DYRK3 (Homo sapiens, UniProt O43781); test: ICKP radiometric kinase assay; type: biochemical; conditions: for remaining activity at 1 µM: read-out: % AR (% kinase activity remaining)
T1 sequence (O43781 1-588): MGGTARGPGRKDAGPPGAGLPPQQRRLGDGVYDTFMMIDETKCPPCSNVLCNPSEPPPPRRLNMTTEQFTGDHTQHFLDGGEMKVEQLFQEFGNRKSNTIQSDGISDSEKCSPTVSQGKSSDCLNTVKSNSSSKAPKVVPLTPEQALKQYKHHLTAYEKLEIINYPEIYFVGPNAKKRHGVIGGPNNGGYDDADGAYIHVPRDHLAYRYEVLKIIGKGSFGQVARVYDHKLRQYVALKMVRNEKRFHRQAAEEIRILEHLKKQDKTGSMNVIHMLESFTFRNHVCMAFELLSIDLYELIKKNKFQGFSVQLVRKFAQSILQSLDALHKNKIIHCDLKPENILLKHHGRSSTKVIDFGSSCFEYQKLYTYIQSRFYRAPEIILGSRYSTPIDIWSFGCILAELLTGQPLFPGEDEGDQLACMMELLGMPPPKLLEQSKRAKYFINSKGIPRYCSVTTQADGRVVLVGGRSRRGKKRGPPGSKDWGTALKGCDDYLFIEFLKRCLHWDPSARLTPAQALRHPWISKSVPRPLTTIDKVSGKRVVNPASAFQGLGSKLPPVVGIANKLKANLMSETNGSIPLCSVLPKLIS

NEK6 = NEK6 (Homo sapiens, UniProt Q9HC98); test: ICKP radiometric kinase assay; type: biochemical; conditions: read-out: % AR (% kinase activity remaining)
IKK epsilon = IKK epsilon (Homo sapiens, UniProt Q14164); test: ICKP radiometric kinase assay; type: biochemical; conditions: read-out: % AR (% kinase activity remaining)
EIF2AK3 = EIF2AK3 (Homo sapiens, UniProt Q9NZJ5); test: ICKP radiometric kinase assay; type: biochemical; conditions: read-out: % AR (% kinase activity remaining)
HIPK1 = HIPK1 (Homo sapiens, UniProt Q86Z02); test: ICKP radiometric kinase assay; type: biochemical; conditions: read-out: % AR (% kinase activity remaining)
HIPK2 = HIPK2 (Homo sapiens, UniProt Q9H2X6); test: ICKP radiometric kinase assay; type: biochemical; conditions: read-out: % AR (% kinase activity remaining)
HIPK3 = HIPK3 (Homo sapiens, UniProt Q9H422); test: ICKP radiometric kinase assay; type: biochemical; conditions: read-out: % AR (% kinase activity remaining)
PAK6 = PAK6 (Homo sapiens, UniProt Q9NQU5); test: ICKP radiometric kinase assay; type: biochemical; conditions: read-out: % AR (% kinase activity remaining)
MST2 = MST2 (Homo sapiens, UniProt Q13188); test: ICKP radiometric kinase assay; type: biochemical; conditions: read-out: % AR (% kinase activity remaining)
MST3 = MST3 (Homo sapiens, UniProt Q9Y6E0); test: ICKP radiometric kinase assay; type: biochemical; conditions: read-out: % AR (% kinase activity remaining)
MINK1 = MINK1 (Homo sapiens, UniProt Q8N4C8); test: ICKP radiometric kinase assay; type: biochemical; conditions: read-out: % AR (% kinase activity remaining)
Src = Src (Homo sapiens, UniProt P12931); test: ICKP radiometric kinase assay; type: biochemical; conditions: read-out: % AR (% kinase activity remaining)
TIE2 = TIE2 (Homo sapiens, UniProt Q02763); test: ICKP radiometric kinase assay; type: biochemical; conditions: read-out: % AR (% kinase activity remaining)
BRK = BRK (Homo sapiens, UniProt Q13882); test: ICKP radiometric kinase assay; type: biochemical; conditions: read-out: % AR (% kinase activity remaining)
DDR2 = DDR2 (Homo sapiens, UniProt Q16832); test: ICKP radiometric kinase assay; type: biochemical; conditions: read-out: % AR (% kinase activity remaining)
VEGFR1 = VEGFR1 (Homo sapiens, UniProt P17948); test: ICKP radiometric kinase assay; type: biochemical; conditions: read-out: % AR (% kinase activity remaining)
PDGFRA = PDGFRA (Homo sapiens, UniProt P16234); test: ICKP radiometric kinase assay; type: biochemical; conditions: read-out: % AR (% kinase activity remaining)
PINK = PINK (Tribolium castaneum, UniProt D6WMX4); test: ICKP radiometric kinase assay; conditions: read-out: % AR (% kinase activity remaining)
BT-549 = test: Cell proliferation assay (CellTiter-Glo); conditions: Homo sapiens
[1] = BT-549, 72 h, read-out: 3-day antiproliferative IC50
[2] = BT-549, 168 h, read-out: 7-day antiproliferative IC50

Chain of VEGFR1 (P17948 27-1338): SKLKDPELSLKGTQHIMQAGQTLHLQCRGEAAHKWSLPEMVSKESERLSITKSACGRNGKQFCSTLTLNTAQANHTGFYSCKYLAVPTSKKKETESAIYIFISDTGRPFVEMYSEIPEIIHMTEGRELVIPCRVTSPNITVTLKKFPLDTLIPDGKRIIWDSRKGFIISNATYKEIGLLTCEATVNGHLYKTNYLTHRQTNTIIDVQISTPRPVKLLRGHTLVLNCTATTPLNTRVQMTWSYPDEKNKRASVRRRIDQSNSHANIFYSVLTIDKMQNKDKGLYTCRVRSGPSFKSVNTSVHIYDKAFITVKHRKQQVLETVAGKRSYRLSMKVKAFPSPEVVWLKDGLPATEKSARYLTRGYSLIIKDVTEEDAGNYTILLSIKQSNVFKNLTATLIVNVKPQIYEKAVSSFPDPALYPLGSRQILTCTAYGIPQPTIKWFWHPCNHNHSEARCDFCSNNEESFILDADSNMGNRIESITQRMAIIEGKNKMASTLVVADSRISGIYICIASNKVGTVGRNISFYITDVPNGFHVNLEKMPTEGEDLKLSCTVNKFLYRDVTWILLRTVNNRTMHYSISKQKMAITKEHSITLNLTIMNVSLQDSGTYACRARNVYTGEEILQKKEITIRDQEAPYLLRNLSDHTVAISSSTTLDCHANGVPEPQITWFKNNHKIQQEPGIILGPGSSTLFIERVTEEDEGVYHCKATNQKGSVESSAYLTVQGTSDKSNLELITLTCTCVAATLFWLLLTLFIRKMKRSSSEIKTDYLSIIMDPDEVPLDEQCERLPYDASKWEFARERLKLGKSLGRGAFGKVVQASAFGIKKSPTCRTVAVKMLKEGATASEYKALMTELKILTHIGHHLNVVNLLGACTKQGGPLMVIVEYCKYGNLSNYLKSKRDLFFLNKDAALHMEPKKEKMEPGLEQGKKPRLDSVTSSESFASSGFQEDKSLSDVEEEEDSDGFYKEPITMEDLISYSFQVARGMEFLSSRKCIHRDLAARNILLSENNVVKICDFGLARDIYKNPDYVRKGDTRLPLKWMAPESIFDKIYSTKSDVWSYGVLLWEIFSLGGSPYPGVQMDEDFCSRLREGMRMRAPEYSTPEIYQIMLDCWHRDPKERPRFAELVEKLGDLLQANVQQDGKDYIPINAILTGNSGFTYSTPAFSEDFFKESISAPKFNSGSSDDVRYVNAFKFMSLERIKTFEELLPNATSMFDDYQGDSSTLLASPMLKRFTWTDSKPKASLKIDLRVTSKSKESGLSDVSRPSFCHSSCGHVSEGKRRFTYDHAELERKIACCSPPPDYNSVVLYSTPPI
Chain of MINK1 (Q8N4C8 whole entry): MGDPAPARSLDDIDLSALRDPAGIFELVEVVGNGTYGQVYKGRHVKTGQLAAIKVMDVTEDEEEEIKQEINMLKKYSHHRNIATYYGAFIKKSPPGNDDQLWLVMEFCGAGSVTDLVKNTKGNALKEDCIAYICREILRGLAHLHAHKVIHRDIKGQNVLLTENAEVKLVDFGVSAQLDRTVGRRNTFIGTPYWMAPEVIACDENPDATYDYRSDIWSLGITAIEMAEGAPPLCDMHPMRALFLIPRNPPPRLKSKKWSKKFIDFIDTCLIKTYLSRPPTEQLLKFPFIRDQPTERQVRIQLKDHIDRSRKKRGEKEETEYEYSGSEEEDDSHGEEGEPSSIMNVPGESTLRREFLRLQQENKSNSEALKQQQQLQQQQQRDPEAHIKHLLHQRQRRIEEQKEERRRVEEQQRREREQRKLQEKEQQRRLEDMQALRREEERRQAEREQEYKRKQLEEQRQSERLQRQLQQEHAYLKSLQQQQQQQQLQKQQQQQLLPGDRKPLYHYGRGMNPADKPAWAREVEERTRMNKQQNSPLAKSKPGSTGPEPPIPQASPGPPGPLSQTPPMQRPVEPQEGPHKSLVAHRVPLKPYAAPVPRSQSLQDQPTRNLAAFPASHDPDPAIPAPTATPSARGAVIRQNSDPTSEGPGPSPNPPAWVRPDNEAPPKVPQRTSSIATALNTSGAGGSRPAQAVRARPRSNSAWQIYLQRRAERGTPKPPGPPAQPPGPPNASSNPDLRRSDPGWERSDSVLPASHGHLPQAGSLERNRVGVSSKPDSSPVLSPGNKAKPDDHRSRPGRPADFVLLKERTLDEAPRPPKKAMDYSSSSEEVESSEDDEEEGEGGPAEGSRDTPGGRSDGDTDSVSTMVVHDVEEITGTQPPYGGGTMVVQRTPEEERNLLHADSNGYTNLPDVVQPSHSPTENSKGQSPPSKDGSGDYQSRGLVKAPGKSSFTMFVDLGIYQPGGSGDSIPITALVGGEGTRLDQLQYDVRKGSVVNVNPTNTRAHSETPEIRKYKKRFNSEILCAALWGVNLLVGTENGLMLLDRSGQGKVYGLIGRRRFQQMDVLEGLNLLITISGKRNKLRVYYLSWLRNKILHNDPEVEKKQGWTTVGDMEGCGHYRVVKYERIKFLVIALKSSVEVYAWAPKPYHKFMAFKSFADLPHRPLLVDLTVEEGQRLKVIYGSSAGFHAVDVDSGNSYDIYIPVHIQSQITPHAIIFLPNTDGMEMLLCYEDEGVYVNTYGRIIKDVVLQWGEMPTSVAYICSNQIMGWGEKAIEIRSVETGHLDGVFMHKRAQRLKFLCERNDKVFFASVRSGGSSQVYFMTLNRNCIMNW
Chain of p38 alpha (Q16539 whole entry): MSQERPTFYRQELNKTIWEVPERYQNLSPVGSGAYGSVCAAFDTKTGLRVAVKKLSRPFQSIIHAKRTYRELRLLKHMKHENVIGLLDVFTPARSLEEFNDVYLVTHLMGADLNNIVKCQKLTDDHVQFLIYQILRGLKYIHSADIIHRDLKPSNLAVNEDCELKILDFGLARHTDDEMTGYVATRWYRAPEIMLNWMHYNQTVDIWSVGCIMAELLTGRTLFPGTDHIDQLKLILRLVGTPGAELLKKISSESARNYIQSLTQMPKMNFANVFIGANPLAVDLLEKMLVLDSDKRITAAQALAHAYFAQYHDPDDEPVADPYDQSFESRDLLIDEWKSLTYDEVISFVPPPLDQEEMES
Chain of JNK3 (P53779 whole entry): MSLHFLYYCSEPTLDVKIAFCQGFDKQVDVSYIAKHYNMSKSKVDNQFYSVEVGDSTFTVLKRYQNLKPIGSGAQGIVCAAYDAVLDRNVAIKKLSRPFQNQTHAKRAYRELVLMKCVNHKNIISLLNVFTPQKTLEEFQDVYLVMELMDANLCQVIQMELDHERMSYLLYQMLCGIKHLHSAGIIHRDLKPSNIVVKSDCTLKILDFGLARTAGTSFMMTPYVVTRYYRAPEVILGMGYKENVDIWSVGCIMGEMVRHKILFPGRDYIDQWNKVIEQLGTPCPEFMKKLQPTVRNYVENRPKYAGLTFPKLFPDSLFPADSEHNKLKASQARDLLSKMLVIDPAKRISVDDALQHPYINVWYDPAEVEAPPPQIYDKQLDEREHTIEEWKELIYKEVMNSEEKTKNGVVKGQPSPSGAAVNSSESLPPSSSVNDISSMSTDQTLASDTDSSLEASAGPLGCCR
Chain of TTBK1 (Q5TCY1 whole entry): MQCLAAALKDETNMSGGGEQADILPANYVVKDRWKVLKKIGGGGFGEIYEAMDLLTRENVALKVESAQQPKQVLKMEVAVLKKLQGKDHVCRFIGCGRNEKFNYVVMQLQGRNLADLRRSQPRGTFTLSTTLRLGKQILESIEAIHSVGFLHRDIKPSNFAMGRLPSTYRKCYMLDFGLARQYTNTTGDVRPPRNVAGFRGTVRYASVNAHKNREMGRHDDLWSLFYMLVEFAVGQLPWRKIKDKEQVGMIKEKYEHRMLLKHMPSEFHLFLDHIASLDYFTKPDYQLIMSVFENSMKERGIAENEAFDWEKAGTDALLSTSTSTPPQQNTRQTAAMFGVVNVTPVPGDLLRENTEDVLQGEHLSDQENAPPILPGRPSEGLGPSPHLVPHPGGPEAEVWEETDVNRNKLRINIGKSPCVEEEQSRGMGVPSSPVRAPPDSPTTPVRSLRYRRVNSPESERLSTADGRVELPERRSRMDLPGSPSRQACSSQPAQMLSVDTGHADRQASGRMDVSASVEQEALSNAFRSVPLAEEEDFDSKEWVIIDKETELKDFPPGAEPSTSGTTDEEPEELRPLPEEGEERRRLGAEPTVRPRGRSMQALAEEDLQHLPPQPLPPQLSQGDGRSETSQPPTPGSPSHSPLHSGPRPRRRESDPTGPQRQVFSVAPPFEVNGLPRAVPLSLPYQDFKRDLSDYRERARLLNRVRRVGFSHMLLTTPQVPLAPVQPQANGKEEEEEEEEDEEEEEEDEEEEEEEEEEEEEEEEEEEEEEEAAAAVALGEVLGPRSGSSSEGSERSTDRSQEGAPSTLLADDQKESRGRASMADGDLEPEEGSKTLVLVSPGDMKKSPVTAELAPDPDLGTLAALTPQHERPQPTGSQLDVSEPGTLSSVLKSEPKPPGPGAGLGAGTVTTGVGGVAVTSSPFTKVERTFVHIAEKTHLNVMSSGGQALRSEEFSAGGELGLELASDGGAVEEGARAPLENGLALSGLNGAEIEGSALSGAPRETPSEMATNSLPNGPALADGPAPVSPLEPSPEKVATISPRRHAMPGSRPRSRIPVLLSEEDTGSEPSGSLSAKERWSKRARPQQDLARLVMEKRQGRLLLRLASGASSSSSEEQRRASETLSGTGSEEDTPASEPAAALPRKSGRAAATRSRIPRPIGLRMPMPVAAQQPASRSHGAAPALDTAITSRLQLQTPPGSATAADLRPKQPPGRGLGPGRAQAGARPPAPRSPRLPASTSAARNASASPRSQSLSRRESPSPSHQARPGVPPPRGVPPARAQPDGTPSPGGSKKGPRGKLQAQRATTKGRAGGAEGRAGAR
Chain of NEK6 (Q9HC98 whole entry): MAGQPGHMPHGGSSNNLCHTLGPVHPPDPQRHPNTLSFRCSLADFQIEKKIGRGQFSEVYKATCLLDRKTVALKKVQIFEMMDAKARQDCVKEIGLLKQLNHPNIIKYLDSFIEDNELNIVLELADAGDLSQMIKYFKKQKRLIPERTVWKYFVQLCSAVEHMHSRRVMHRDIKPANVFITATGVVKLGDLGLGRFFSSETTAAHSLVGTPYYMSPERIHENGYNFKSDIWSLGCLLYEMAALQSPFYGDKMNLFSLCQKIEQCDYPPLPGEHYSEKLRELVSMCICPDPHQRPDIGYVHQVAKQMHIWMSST

Question: How did the IC50 (mTOR) turn out when `CN(C)C[C@H]1CC[C@H](N2C(=O)NCc3cnc4ccc(-c5cc(Cl)c(O)c(Cl)c5)cc4c32)CC1` [HTH-01-091, 9-(3,5-dichloro-4-hydroxyphenyl)-1-(trans-4-((dimethylamino)methyl)cyclohexyl)-3,4-dihydropyrimido[5,4 c]quinolin-2(1H)-one] was run?
Answer: 632 nM

Question: And the remaining activity at 1 µM (MKK2)?
Answer: 75%

Question: What about the remaining activity at 1 µM (JNK2) of the same compound?
Answer: 100%

Question: And the remaining activity at 1 µM (JNK3)?
Answer: 101%

Question: What about the remaining activity at 1 µM (p38 alpha) of the same compound?
Answer: 84%

Question: And the remaining activity at 1 µM (p38 beta)?
Answer: 85%

Question: And the remaining activity at 1 µM (PDK1)?
Answer: 102%

Question: And the remaining activity at 1 µM (PKB alpha)?
Answer: 101%

Question: What about the remaining activity at 1 µM (MAPKAP-K2) of the same compound?
Answer: 98%

Question: What about the remaining activity at 1 µM (CAMK1) of the same compound?
Answer: 93%

Question: And the remaining activity at 1 µM (CDK2-Cyclin A)?
Answer: 67%

Question: And the remaining activity at 1 µM (MARK4)?
Answer: 95%

Question: What about the remaining activity at 1 µM (CK2) of the same compound?
Answer: 23%

Question: And the remaining activity at 1 µM (TTBK1)?
Answer: 103%

Question: And the remaining activity at 1 µM (DYRK1A)?
Answer: 23%

Question: And the remaining activity at 1 µM (DYRK3)?
Answer: 5%

Question: And the IC50 (DYRK3; radioactive filter-binding assay provided by the ICKP, read-out: Enzymatic IC50 DYRK3)?
Answer: 41.8 nM

Question: And the remaining activity at 1 µM (NEK6)?
Answer: 95%

Question: What about the remaining activity at 1 µM (IKK epsilon) of the same compound?
Answer: 92%

Question: And the remaining activity at 1 µM (EIF2AK3)?
Answer: 114%

Question: What about the remaining activity at 1 µM (HIPK1) of the same compound?
Answer: 24%

Question: What about the remaining activity at 1 µM (HIPK2) of the same compound?
Answer: 13%

Question: And the remaining activity at 1 µM (HIPK3)?
Answer: 25%

Question: And the remaining activity at 1 µM (PAK6)?
Answer: 89%

Question: And the remaining activity at 1 µM (MST2)?
Answer: 45%

Question: And the remaining activity at 1 µM (MST3)?
Answer: 93%

Question: What about the remaining activity at 1 µM (MINK1) of the same compound?
Answer: 38%

Question: And the remaining activity at 1 µM (Src)?
Answer: 54%

Question: And the remaining activity at 1 µM (TIE2)?
Answer: 71%

Question: What about the remaining activity at 1 µM (BRK) of the same compound?
Answer: 96%

Question: What about the remaining activity at 1 µM (DDR2) of the same compound?
Answer: 44%

Question: What about the remaining activity at 1 µM (VEGFR1) of the same compound?
Answer: 43%

Question: What about the remaining activity at 1 µM (PDGFRA) of the same compound?
Answer: 35%

Question: What about the remaining activity at 1 µM (PINK) of the same compound?
Answer: 93%

Question: What about the IC50 (BT-549; [1]) of the same compound?
Answer: 6160 nM

Question: And the IC50 (BT-549; [2])?
Answer: 2820 nM

Question: How did the IC50 (mTOR) turn out when `CC(=O)c1cnc2ccc(-c3cc(Cl)c(O)c(Cl)c3)nc2c1N[C@H]1CC[C@H](CN(C)C)CC1` [OTSSP167] was run?
Answer: 35.7 nM

Question: And the remaining activity at 1 µM (MKK2)?
Answer: 10%

Question: And the remaining activity at 1 µM (JNK2)?
Answer: 16%

Question: What about the remaining activity at 1 µM (JNK3) of the same compound?
Answer: 13%

Question: And the remaining activity at 1 µM (p38 alpha)?
Answer: 10%

Question: What about the remaining activity at 1 µM (p38 beta) of the same compound?
Answer: 6%

Question: And the remaining activity at 1 µM (PDK1)?
Answer: 4%

Question: And the remaining activity at 1 µM (PKB alpha)?
Answer: 28%

Question: And the remaining activity at 1 µM (MAPKAP-K2)?
Answer: 14%

Question: And the remaining activity at 1 µM (CAMK1)?
Answer: 15%

Question: What about the remaining activity at 1 µM (CDK2-Cyclin A) of the same compound?
Answer: 2%

Question: What about the remaining activity at 1 µM (MARK4) of the same compound?
Answer: 14%

Question: And the remaining activity at 1 µM (CK2)?
Answer: 1%

Question: And the remaining activity at 1 µM (TTBK1)?
Answer: 82%

Question: What about the remaining activity at 1 µM (DYRK1A) of the same compound?
Answer: 1%

Question: And the remaining activity at 1 µM (DYRK3)?
Answer: 1%

Question: And the remaining activity at 1 µM (NEK6)?
Answer: 92%

Question: And the remaining activity at 1 µM (IKK epsilon)?
Answer: 2%

Question: What about the remaining activity at 1 µM (EIF2AK3) of the same compound?
Answer: 7%

Question: What about the remaining activity at 1 µM (HIPK1) of the same compound?
Answer: 0%

Question: And the remaining activity at 1 µM (HIPK2)?
Answer: 2%

Question: And the remaining activity at 1 µM (HIPK3)?
Answer: 0%

Question: And the remaining activity at 1 µM (PAK6)?
Answer: 29%

Question: What about the remaining activity at 1 µM (MST2) of the same compound?
Answer: 7%

Question: And the remaining activity at 1 µM (MST3)?
Answer: 5%

Question: And the remaining activity at 1 µM (MINK1)?
Answer: 2%

Question: And the remaining activity at 1 µM (Src)?
Answer: 5%

Question: And the remaining activity at 1 µM (TIE2)?
Answer: 3%

Question: What about the remaining activity at 1 µM (BRK) of the same compound?
Answer: 8%

Question: What about the remaining activity at 1 µM (DDR2) of the same compound?
Answer: 0%

Question: And the remaining activity at 1 µM (VEGFR1)?
Answer: 1%

Question: And the remaining activity at 1 µM (PDGFRA)?
Answer: 20%

Question: And the remaining activity at 1 µM (PINK)?
Answer: 89%

Question: And the IC50 (BT-549; [1])?
Answer: 21 nM

Question: And the IC50 (BT-549; [2])?
Answer: 9 nM
